The values below come from patent US8143394B2, “Pyrido(3,2-d)pyrimidines useful for treating viral infections” (Gilead Sciences, Inc., priority 2006, dated 2012).

Series [1] in a line: CC50 assay (CellTiter-Glo) in Huh-7 HCV replicon cells. The settings on record: human, 50% cytostatic concentration. The format is cell-based, human. The method, then: (§1) The anti-HCV activity of the pyrido[3,2-d]pyrimidine derivatives of this invention was tested in a human hepatoma Huh-7 cell line harbouring a HCV replicon. The assay comprised the following steps:
(§2) Step 1: Compound Preparation and Serial Dilution
(§3) • 1. for water soluble pyrido[3,2-d]pyrimidine derivatives, a volume of 500 μL of solution in cell media (DMEM, 10% FBS, P/S, L-Glutamine) was prepared with a concentration being twice the concentration of the starting final serial dilution concentration. A volume of 150 μL of the solution was added to the pre-specified wells in column 1 of a 96-well cell culture plate (PerkinElmer, white plate, cat. #6005181, for EC50 assay; black plate, cat. #6005182 for CC50 assay). The rest of the plate, columns 2-12, was filled with 100 μL of cell media. The plate was then placed on a Precision 2000 Workstation to start the serial dilution. Compounds were diluted three times each step from column 1 to column 10. Column 11 was used as a blank control (no compound added). • 2. for pyrido[3,2-d]pyrimidine derivatives requiring DMSO to dissolve, serial dilution is performed in 50% DMSO in a 384-well plate. A solution containing a compound at 100-fold concentration of the starting final serial dilution concentration was prepared in 50% DMSO and added to the pre-specified wells in column 1 of a polypropylene 384-well plate. The plate was then placed on a Precision 2000 Workstation to start the serial dilution. After the serial dilution, a volume of 2 μL of the solution was transferred from the 384-well plate to a 96-well cell culture plate containing 100 μL of cell media on a Biomek FX Workstation. The DMSO concentration in the final assay condition was 0.5% after cells are added to the plate and the total volume in each well is brought to 200 μL. Step 2: to each well of the serial dilution plate prepared above, 100 μL of cell media containing 6000 suspended Huh-7 HCV replicon cells was added with a Multidrop workstation. The plates were incubated for 3 days at 37° C. with 5% CO2. Step 3: Detection: • a) for the EC50 assay, the media in a 96-well cell culture plate was aspirated with a Biotek EL405 plate-washer. A volume of 200 μL of a solution containing a 1:1 mixture of cell-lysis buffer (Promega, Luciferase Cell Culture Lysis 5X Reagent, cat. #E1531) and luciferase substrate solution (Promega, Luciferase Assay, cat. # E4550) was added to each well of the plate with Multidrop. The plate was incubated for 30 minutes at room temperature before the luminescence signal was measured with a TopCount plate-reader. • b) for the CC50 assay, a volume of 100 μL of pre-mixed CellTiter-Glo (Promega, cat. # G7572) solution is added directly to the cell culture in each well of the plate and the luminescence signal is measured with a TopCount plate-reader after 10 minutes of incubation at room temperature.
(§4) Results in table 13 are expressed by the following data: • the 50% effective concentration (EC50), i.e. the concentration that protects 50% of the cell monolayer from virus-induced cythopathic effect, and • the 50% cytostatic concentration (CC50), i.e. the concentration that results in 50% inhibition of cell growth.

The next series concerns HCV replicon. As to the kind of experiment: Anti-HCV replicon assay (EC50, luciferase readout). To be noted: Hepatitis C virus, 72 h; human hepatoma Huh-7 cell line harbouring a HCV replicon; 3 days; luciferase; read-out: EC50. The series is classed as cell-based. The method, then:
as §1, §2, §3, §4

As to `Nc1nc(O[C@H]2CCOC2)c2nc(-c3ccc(C(=O)NCCN4CCOCC4)cc3)ccc2n1` [Example 84, 4-[2-Amino-4-(tetrahydro-furan-3-yloxy)-pyrido[3,2-d]pyrimidin-6-yl]-N-(2-morpholin-4-yl-ethyl)-benzamide], in series [1], the CC50 at 3 days was more than 20000 nM. The EC50 with HCV replicon is less than 300 nM.

As to `CCC(=O)Nc1ccc(-c2ccc3nc(N)nc(NCCOC)c3n2)cc1` [Example 8, N-{4-[2-Amino-4-(2-methoxy-ethylamino)-pyrido[3,2-d]pyrimidin-6-yl]-phenyl}-propionamide], in series [1], the CC50 at 3 days is more than 20000 nM. Moreover, in the series on HCV replicon, the EC50 was less than 300 nM.

For the compound `Nc1nc(O[C@@H]2CCOC2)c2nc(-c3ccc(NC(=O)[C@H]4CCNC4)cc3)ccc2n1` [Example 24, Pyrrolidine-3-carboxylic acid {4-[2-amino-4-(tetrahydro-furan-3-yloxy)-pyrido[3,2-d]pyrimidin-6-yl]-phenyl}-amide], the CC50 at 3 days in series [1] is more than 20000 nM. Besides, in the series with HCV replicon, the EC50 is more than 1000 nM.

Take `CC(C)Oc1nc(N)nc2ccc(-c3ccc(C(=O)NC4CCCC4)cc3)nc12` [Example 68, 4-(2-Amino-4-isopropoxy-pyrido[3,2-d]pyrimidin-6-yl)-N-cyclopentyl-benzamide]: the CC50 at 3 days in series [1] was more than 20000 nM. Further, in the series on HCV replicon, the EC50 was in the range of 300 to 1000 nM.

In turn, `CCC(=O)Nc1ccc(-c2ccc3nc(N)nc(OCCOC)c3n2)cc1` [Example 18, N-{4-[2-Amino-4-(2-methoxy-ethoxy)-pyrido[3,2-d]pyrimidin-6-yl]-phenyl}-propionamide] returned a CC50 at 3 days in series [1] of more than 20000 nM. Moreover, the EC50 in the series with HCV replicon was in the range of 300 to 1000 nM.

`CCOc1nc(N)nc2ccc(-c3ccc(Nc4nccs4)cc3)nc12` [Example 31] registered a CC50 at 3 days in series [1] of 10000 to 20000 nM. Moreover, in the series on HCV replicon, the EC50 was in the range of 300 to 1000 nM.

For the compound `CCOc1nc(N)nc2ccc(-c3ccc(C(=O)NCC(C)C)cc3)nc12` [Example 56, 4-(2-Amino-4-ethoxy-pyrido[3,2-d]pyrimidin-6-yl)-N-isobutyl-benzamide], the CC50 at 3 days in series [1] is more than 20000 nM. Further, the EC50 with HCV replicon was 300 to 1000 nM.

In turn, `CCOc1nc(N)nc2ccc(-c3ccc(NC(=O)C(C)(C)N)cc3)nc12` [Example 37, 2-Amino-N-[4-(2-amino-4-ethoxy-pyrido[3,2-d]pyrimidin-6-yl)-phenyl]-2-methyl-propionamide] registered a CC50 at 3 days in series [1] of more than 20000 nM. Besides, the EC50 in the series on HCV replicon is less than 300 nM.

Take `CCOc1nc(N)nc2ccc(-c3ccc(C(=O)NCCN(C)C)cc3)nc12` [Example 63, 4-(2-Amino-4-ethoxy-pyrido[3,2-d]pyrimidin-6-yl)-N-(2-dimethylamino-ethyl)-benzamide]: the CC50 at 3 days in series [1] lay within 10000 to 20000 nM. In addition, the EC50 with HCV replicon was less than 300 nM.

For `COCCNc1nc(N)nc2ccc(-c3ccc(C(=O)NC4CC4)cc3)nc12` [Example 11, 4-[2-Amino-4-(2-methoxy-ethylamino)-pyrido[3,2-d]pyrimidin-6-yl]-N-cyclopropyl-benzamide], in series [1], the CC50 at 3 days is more than 20000 nM. Further, the EC50 in the series with HCV replicon is less than 300 nM.

For `CC(C)Oc1nc(N)nc2ccc(-c3ccc(C(=O)NC4CCCCC4)cc3)nc12` [Example 65, 4-(2-Amino-4-isopropoxy-pyrido[3,2-d]pyrimidin-6-yl)-N-cyclohexyl-benzamide], the CC50 at 3 days in series [1] is more than 20000 nM. Also, the EC50 in the series on HCV replicon was more than 1000 nM.

Compound `CCOc1nc(N)nc2ccc(-c3ccc(NC(=O)[C@H](C)N)cc3)nc12` [Example 42, 2-Amino-N-[4-(2-amino-4-ethoxy-pyrido[3,2-d]pyrimidin-6-yl)-phenyl]-propionamide] displayed a CC50 at 3 days in series [1] of more than 20000 nM. In the series with HCV replicon, the EC50 was less than 300 nM.

With `Nc1nc(N2CCOCC2)c2nc(-c3ccc(C(=O)NC4CC4)cc3)ccc2n1` [Example 17, 4-(2-amino-4-morpholin-4-yl-pyrido[3,2-d]pyrimidin-6-yl)-N-cyclopropyl-benzamide], the CC50 at 3 days in series [1] is less than 10000 nM. Moreover, the EC50 in the series with HCV replicon was less than 300 nM.

With `Nc1nc(O[C@H]2CCOC2)c2nc(-c3ccc(C(=O)NCCCN4CCCC4)cc3)ccc2n1` [Example 79, 4-[2-Amino-4-(tetrahydro-furan-3-yloxy)-pyrido[3,2-d]pyrimidin-6-yl]-N-(3-pyrrolidin-1-yl-propyl)-benzamide], the CC50 at 3 days in series [1] was more than 20000 nM. Further, the EC50 in the series with HCV replicon lay within 300 to 1000 nM.

`COCCNc1nc(N)nc2ccc(-c3ccc(NC(=O)OC)cc3)nc12` [Example 10, {4-[2-Amino-4-(2-methoxy-ethylamino)-pyrido[3,2-d]pyrimidin-6-yl]-phenyl}-carbamic acid methyl ester] registered a CC50 at 3 days in series [1] of more than 20000 nM. Moreover, in the series on HCV replicon, the EC50 is 300 to 1000 nM.

As to `CCOc1nc(N)nc2ccc(-c3cccc(NS(=O)(=O)C(C)C)c3)nc12` [Example 52, Propane-2-sulfonic acid[3-(2-amino-4-ethoxy-pyrido[3,2-d]pyrimidin-6-yl)-phenyl]-amide], the CC50 at 3 days in series [1] was less than 10000 nM. Further, the EC50 in the series on HCV replicon is less than 300 nM.

`CCOc1nc(N)nc2ccc(-c3ccc(-c4nnc(C)o4)cc3)nc12` [Example 85, 4-Ethoxy-6-[4-(5-methyl-[1,3,4]oxadiazol-2-yl)-phenyl]-pyrido[3,2-d]pyrimidin-2-ylamine]: the CC50 at 3 days in series [1] is more than 20000 nM. Also, the EC50 with HCV replicon is more than 1000 nM.

For `CCC(=O)Nc1ccc(-c2ccc3nc(N)nc(NCCS(C)(=O)=O)c3n2)cc1` [Example 4, N-{4-[2-Amino-4-(2-methanesulfonyl-ethylamino)-pyrido[3,2-d]pyrimidin-6-yl]-phenyl}-propionamide], the CC50 at 3 days in series [1] is more than 20000 nM. In the series on HCV replicon, the EC50 is more than 1000 nM.

In turn, `CCOc1nc(N)nc2ccc(-c3cccc(NS(=O)(=O)c4cnc(NC(C)=O)s4)c3)nc12` [Example 48, N-{5-[3-(2-Amino-4-ethoxy-pyrido[3,2-d]pyrimidin-6-yl)-phenylsulfamoyl]-thiazol-2-yl}-acetamide] returned a CC50 at 3 days in series [1] of more than 20000 nM. The concentration giving a half-maximal response (EC50) with HCV replicon was less than 300 nM.

With `Nc1nc(O[C@H]2CCOC2)c2nc(-c3ccc(C(=O)NCCN4CCCC4)cc3)ccc2n1` [Example 83, 4-[2-Amino-4-(tetrahydro-furan-3-yloxy)-pyrido[3,2-d]pyrimidin-6-yl]-N-(2-pyrrolidin-1-yl-ethyl)-benzamide], the CC50 at 3 days in series [1] is more than 20000 nM. For the same compound, the EC50 in the series with HCV replicon is less than 300 nM.

With `CCOc1nc(N)nc2ccc(-c3cccc(NS(=O)(=O)C4CC4)c3)nc12` [Example 53, Cyclopropanesulfonic acid[3-(2-amino-4-ethoxy-pyrido[3,2-d]pyrimidin-6-yl)-phenyl]-amide], the CC50 at 3 days in series [1] is more than 20000 nM. Besides, in the series on HCV replicon, the EC50 is less than 300 nM.

On to `CCCCNC(=O)c1ccc(-c2ccc3nc(N)nc(OC(C)C)c3n2)cc1` [Example 66, 4-(2-Amino-4-isopropoxy-pyrido[3,2-d]pyrimidin-6-yl)-N-n-butyl-benzamide], for which the CC50 at 3 days in series [1] was more than 20000 nM. Besides, the EC50 in the series on HCV replicon lay in the range of 300 to 1000 nM.

The compound `CCOc1nc(N)nc2ccc(-c3ccc(NC(=O)C4(O)CC4)cc3)nc12` [Example 33, 1-Hydroxy-cyclopropanecarboxylic acid [4-(2-amino-4-ethoxy-pyrido[3,2-d]pyrimidin-6-yl)-phenyl]-amide] returned a CC50 at 3 days in series [1] of more than 20000 nM. Moreover, the EC50 with HCV replicon is less than 300 nM.

`CCOc1nc(N)nc2ccc(-c3ccc(NS(C)(=O)=O)cc3)nc12` [Example 43, N-[4-(2-Amino-4-ethoxy-pyrido[3,2-d]pyrimidin-6-yl)-phenyl]-methanesulfonamide] displayed a 50% cytotoxic concentration (CC50) at 3 days in series [1] of more than 20000 nM. Also, the EC50 with HCV replicon was more than 1000 nM.

Consider `CONC(=O)c1ccc(-c2ccc3nc(N)nc(OC(C)C)c3n2)cc1` [Example 70, 4-[2-Amino-4-isopropoxy-pyrido[3,2-d]pyrimidin-6-yl]-N-methoxy-benzamide], for which the CC50 at 3 days in series [1] was more than 20000 nM. Further, the EC50 with HCV replicon is less than 300 nM.

In turn, `CNC(=O)c1ccc(-c2ccc3nc(N)nc(OC(C)C)c3n2)cc1Cl` [Example 71, 4-(2-Amino-4-isopropoxy-pyrido[3,2-d]pyrimidin-6-yl)-2-chloro-N-methyl-benzamide] came in with a CC50 at 3 days in series [1] of more than 20000 nM. In the series with HCV replicon, the EC50 was more than 1000 nM.
